Measurements reported in patent publication US5262521A (SRI International, priority 1991, dated 1993).
One block for each molecule: values may come before it. Where a SMILES comes first, the peptide text is derived from it. Where no end group is shown, it is not given here. [ ]: non-standard residue; d: D form. The star is where a group is joined. Boc = CC(C)(C)OC(=O)*

Assays:
[1] = system: atrial peptide-degrading enzyme (ADE); assay: Degradation of peptide substrates by atrial peptide-degrading enzyme preparation (HPLC); format: biochemical, bovine; details: 50 μM substrate, 37° C.
[2] = biological target: atrial peptide-degrading enzyme (ADE); assay: Inhibition of ADE activity (AcAPI production from 50 μM AcAPII, HPLC); format: biochemical, bovine; details: Table 10
Procedure: The concentration of enzyme and AcAPII were chosen so that approximately 80% of the AcAPII was degraded in the absence of inhibitor. The production of AcAPI was determined by integration of the AcI peak, and percent inhibition by the inhibitors was calculated.
(e.) Enzyme Inhibitor Testing: To further characterize ADE, the extent of inhibition by several known peptidase inhibitors was determined.

[3] = system: spontaneously hypertensive rats; assay: Blood pressure and heart rate measurements in spontaneously hypertensive rats; format: in vivo, rat; design: Diastolic Blood Pressure, Mean Change From Control: unit not given here
Procedure: This experiment was carried out to evaluate the effects of an ADE inhibitor compound of the invention upon blood pressure (systolic and diastolic) and heart rate in spontaneously hypertensive rats ("SHR"). Twenty-eight male SHR, weighing 200-300 g at the initiation of study, having a systolic blood pressure of 160 mm Hg or higher, and obtained from Charles River Laboratories (Wilmington, Mass.), were tested over a nine-day period. The animal room environment and photoperiod were controlled (temperature approximately 22° C.±3° C., humidity of 40 to 70%, 12 h light, 12 h dark), as was diet.
The compounds to be administered (compound (V), above, and rat ANF ("rANF")) were dissolved in a 0.9% saline solution and administered intravenously. The test animals were divided into seven distinct groups for purposes of dose administration, as follows:
Group 1. Four SHR rats were infused with 100 pmole/minute of RANF (0.026 ml/minute) for 20 minutes.
Group 2. Four SHR rats were administered an i.v. bolus of 2 mg/kg of compound (V).
Group 3. Four SHR rats were administered an i.v. bolus of 10 mg/kg of compound (V).
Group 4. Four SHR rats were infused with 0.2 mg/kg/min of compound (V) (0.026 ml/minute) for 20 minutes.
Group 5. Four SHR rats were administered an i.v. bolus of 2 mg/kg of compound (V) and then infused with 100 pmole/minute of RANF (0.026 ml/minute for 20 minutes.
Group 6. Four SHR rats were administered an i.v. bolus of 10 mg/kg of compound (V) and then infused with 100 pmole/minute of RANF (0.026 ml/minute) for 20 minutes.
Group 7. Four SHR rats were infused with 0.2 mg/kg/min of compound (V) (0.026 ml/minute) for 20 minutes and then infused with 100 pmole/minute of RANF ([…]) for 20 minutes.
Blood pressure and heart rate determinations were made at 5 minute intervals for 20 minutes prior to dose and at 5 minute intervals for a minimum of 40 minutes following the initiation of test article administration or until a return to control values was realized. Blood pressure was measured continuously for one minute using a Statham P23Db pressure transducer (Statham Instruments, Hata Rey, Puerto Rico), and a Grass Model 7 Polygraph (Glass Instrument Company, Quincy, Mass.). Heart rate was measured using a Narco biotachometer BT-1200 (Narco Biosystems, Houston, Tex.).

[4] = system: atrial peptide-degrading enzyme (ADE); assay: pooled fractions from the Dynamax HPLC ion exchange, or Sephacryl S-200 columns (ADE isolated from bovine kidney cortex); details: 37° C., up to two hours
[5] = (V) 20 min. infusion 0.2 mg/kg/min. i.v., interval 0 min
[6] = (V) 20 min. infusion 0.2 mg/kg/min. i.v., interval 5 min
[7] = (V) 20 min. infusion 0.2 mg/kg/min. i.v., interval 10 min
[8] = (V) 20 min. infusion 0.2 mg/kg/min. i.v., interval 15 min
[9] = (V) 20 min. infusion 0.2 mg/kg/min. i.v., interval 20 min
[10] = (V) 20 min. infusion 0.2 mg/kg/min. i.v., interval 25 min
[11] = (V) 20 min. infusion 0.2 mg/kg/min. i.v., interval 30 min
[12] = (V) 20 min. infusion 0.2 mg/kg/min. i.v., interval 35 min
[13] = (V) 20 min. infusion 0.2 mg/kg/min. i.v., interval 40 min
[14] = (V) bolus injection 2 mg/kg i.v., interval 0 min
[15] = (V) bolus injection 2 mg/kg i.v., interval 5 min
[16] = (V) bolus injection 2 mg/kg i.v., interval 10 min
[17] = (V) bolus injection 2 mg/kg i.v., interval 15 min
[18] = (V) bolus injection 2 mg/kg i.v., interval 20 min
[19] = (V) bolus injection 2 mg/kg i.v., interval 25 min
[20] = (V) bolus injection 2 mg/kg i.v., interval 30 min
[21] = (V) bolus injection 2 mg/kg i.v., interval 35 min
[22] = (V) bolus injection 2 mg/kg i.v., interval 40 min
[23] = (V) bolus injection 10 mg/kg i.v., interval 0 min
[24] = (V) bolus injection 10 mg/kg i.v., interval 5 min
[25] = (V) bolus injection 10 mg/kg i.v., interval 10 min
[26] = (V) bolus injection 10 mg/kg i.v., interval 15 min
[27] = (V) bolus injection 10 mg/kg i.v., interval 20 min
[28] = (V) bolus injection 10 mg/kg i.v., interval 25 min
[29] = (V) bolus injection 10 mg/kg i.v., interval 30 min
[30] = (V) bolus injection 10 mg/kg i.v., interval 35 min
[31] = (V) bolus injection 10 mg/kg i.v., interval 40 min
[32] = (V) bolus injections at 2 and 10 mg/kg
[33] = (V) infusion 0.2 mg/kg/minute for 20 minutes

Molecule: CC(C)C[C@H](NC(=O)CNC(=O)[C@H](Cc1ccc(O)cc1)NC(=O)[C@H](CO)NC(=O)[C@H](Cc1c[nH]c2ccccc12)NC(=O)[C@H](Cc1c[nH]cn1)NC(=O)[C@@H]1CCC(=O)N1)C(=O)N[C@@H](CCCNC(=N)N)C(=O)N1CCC[C@H]1C(=O)NCC(N)=O [LHRH, pGlu--His--Trp--Ser--Tyr--Gly--Leu--Arg--Pro--Gly-NH2]
% Degraded 1 h [1]: 0%

IC50 [2]: 14.5 µM | % Inhibition At 0.1 mM ([2]; 0.1 mM): 81%
Molecule: CC(C)C[C@H](NC(=O)[C@@H](N)CO)C(=O)N[C@@H](CCCNC(=N)N)C(=O)N[C@@H](CCCNC(=N)N)C(=O)N[C@@H](CO)C(=O)N[C@@H](CO)C(=O)N[C@H](C)C(=O)NCC(=O)N[C@H](C)C(=O)N[C@@H](CC(N)=O)C(=O)N[C@@H](CS)C(=O)N[C@H](Cc1ccccc1)C(=O)N[C@@H](CCCNC(=N)N)C(=O)N[C@@H](Cc1ccc(O)cc1)C(N)=O [(V), Ser-Leu-Arg-Arg-Ser-Ser-DAla-Gly-DAla-Asn-Cys-DPhe-Arg-Tyr-NH2] (H-SLRRSS[dA]G[dA]NC[dF]RY-NH2)
Diastolic Blood Pressure, Mean Change From Control [3, 5]: -4 | Systolic Blood Pressure, Mean Change From Control [3, 5]: -1 | Diastolic Blood Pressure, Mean Change From Control [3, 6]: -12 | Systolic Blood Pressure, Mean Change From Control [3, 6]: -10 | Diastolic Blood Pressure, Mean Change From Control [3, 7]: -15 | Systolic Blood Pressure, Mean Change From Control [3, 7]: -18 | Diastolic Blood Pressure, Mean Change From Control [3, 8]: -18 | Systolic Blood Pressure, Mean Change From Control [3, 8]: -16 | Diastolic Blood Pressure, Mean Change From Control [3, 9]: -20 | Systolic Blood Pressure, Mean Change From Control [3, 9]: -26 | Diastolic Blood Pressure, Mean Change From Control [3, 10]: -13 | Systolic Blood Pressure, Mean Change From Control [3, 10]: -16 | Diastolic Blood Pressure, Mean Change From Control [3, 11]: -14 | Systolic Blood Pressure, Mean Change From Control [3, 11]: -9 | Diastolic Blood Pressure, Mean Change From Control [3, 12]: 0 | Systolic Blood Pressure, Mean Change From Control [3, 12]: 0 | Diastolic Blood Pressure, Mean Change From Control [3, 13]: -2 | Systolic Blood Pressure, Mean Change From Control [3, 13]: +5 | Duration of the blood pressure lowering following administration ([3]; (V) bolus 2 mg/kg): 20 min | Duration of the blood pressure lowering following administration ([3]; (V) bolus 10 mg/kg): 35 min | Diastolic Blood Pressure, Mean Change From Control [3, 14]: -61 | Systolic Blood Pressure, Mean Change From Control [3, 14]: -80 | Diastolic Blood Pressure, Mean Change From Control [3, 15]: -40 | Systolic Blood Pressure, Mean Change From Control [3, 15]: -50 | Diastolic Blood Pressure, Mean Change From Control [3, 16]: -14 | Systolic Blood Pressure, Mean Change From Control [3, 16]: -30 | Diastolic Blood Pressure, Mean Change From Control [3, 17]: -8 | Systolic Blood Pressure, Mean Change From Control [3, 17]: -14 | Diastolic Blood Pressure, Mean Change From Control [3, 18]: -10 | Systolic Blood Pressure, Mean Change From Control [3, 18]: -13 | Diastolic Blood Pressure, Mean Change From Control [3, 19]: +1 | Systolic Blood Pressure, Mean Change From Control [3, 19]: -4 | Diastolic Blood Pressure, Mean Change From Control [3, 20]: +5 | Systolic Blood Pressure, Mean Change From Control [3, 20]: +1 | Diastolic Blood Pressure, Mean Change From Control [3, 21]: +7 | Systolic Blood Pressure, Mean Change From Control [3, 21]: +2 | Diastolic Blood Pressure, Mean Change From Control [3, 22]: 0 | Systolic Blood Pressure, Mean Change From Control [3, 22]: +4 | Diastolic Blood Pressure, Mean Change From Control [3, 23]: -66 | Systolic Blood Pressure, Mean Change From Control [3, 23]: -76 | Diastolic Blood Pressure, Mean Change From Control [3, 24]: -76 | Systolic Blood Pressure, Mean Change From Control [3, 24]: -119 | Diastolic Blood Pressure, Mean Change From Control [3, 25]: -61 | Systolic Blood Pressure, Mean Change From Control [3, 25]: -100 | Diastolic Blood Pressure, Mean Change From Control [3, 26]: -55 | Systolic Blood Pressure, Mean Change From Control [3, 26]: -84 | Diastolic Blood Pressure, Mean Change From Control [3, 27]: -35 | Systolic Blood Pressure, Mean Change From Control [3, 27]: -55 | Diastolic Blood Pressure, Mean Change From Control [3, 28]: -27 | Systolic Blood Pressure, Mean Change From Control [3, 28]: -41 | Diastolic Blood Pressure, Mean Change From Control [3, 29]: -17 | Systolic Blood Pressure, Mean Change From Control [3, 29]: -29 | Diastolic Blood Pressure, Mean Change From Control [3, 30]: -15 | Systolic Blood Pressure, Mean Change From Control [3, 30]: -21 | Diastolic Blood Pressure, Mean Change From Control [3, 31]: +10 | Systolic Blood Pressure, Mean Change From Control [3, 31]: +9 | Effect on systolic and diastolic blood pressure, in words [3, 32]: Dose-related decreases in systolic and diastolic blood pressure | Effect upon heart rate [3, 32]: No effects upon heart rate | Duration of blood pressure decrease following the conclusion of the dose [3, 33]: 10 min | Effect on systolic and diastolic blood pressure, in words [3, 33]: minimal decreases in systolic and diastolic blood pressure | Effect upon heart rate [3, 33]: No effects upon heart rate

% Degraded (small peptides) ([1]; one or two hours): 0%
Molecule: COC(=O)[C@H](Cc1ccccc1)NC(=O)[C@H](CO)NC(=O)[C@H](CC(N)=O)NC(=O)OC(C)(C)C [Boc--Asn--Ser--Phe--OCH3] (Boc-Asn-Ser-Phe-OMe)

not cleaved [4]: 0% degraded
Molecule: Hip--Ser--Phe--Arg

% Degraded 1 h [1]: > 95%
Molecule: ANF: atrial natriuretic factor, carboxy terminal 28 amino acid fragment of α-ANF

not cleaved [4]: 0% degraded at 1 h
Molecule: pGlu--His--Trp--Ser--Tyr--Gly--Leu--Arg--Pro--Gly-NH2

not cleaved [4]: 8% degraded
Molecule: Asn--Ser--Phe--Arg--Tyr

not cleaved [4]: 4% degraded at 1 h, 6% degraded at 2 h
Molecule: DVNTDRPG

not cleaved [4]: 0% degraded at 2 h
Molecule: LYKKIIKKLLES

Molecule: API: rat atriopeptin I, atrial peptide prepared by solid phase synthesis (SSCFGGRIDRIGAQSGLGCNS; ends and bridges not checked; cysteine pairing not given here; UniProt P01161 127-147, looked up)
% Degraded 1 h [1]: 0% | % Degraded 2 h ([1]; 2 h): 0%

not cleaved [4]: 0% degraded
Molecule: Boc-Asn-Ser-Phe-OMe
